# Patent publication US20220202912A1, “Polypeptides in Preparation of Drugs for Treatment or Prevention of Rheumatoid Arthritis” (priority 2011, published 2022)
# Where no end group is shown, it is not given here.
# Test system: AIA transgenic TNF-luc mice
# Assay: adjuvant-induced arthritis in transgenic TNF-luc mice (swelling, scores, weight, HE staining)
# Type: in vivo, BALB/c transgenic TNF-luc mice
# Design: right ankle swelling / left ankle swelling / left toe swelling / right toe swelling / changes of weight (added value): unit not given here
# Details: Adalimumab 8 mg/kg; for HE staining of ankle joints: pathological symptoms vs model group: mPEG-SC20k-HM-3 20 mg/kg
# Protocol: 8 animals are randomly divided into 4 groups (n=2), a normal group, a model group, a positive drug group and a test group. On day 0, the initial left and right ankle thicknesses, initial left and right foot palm thicknesses and initial left and right toe thicknesses of each group of mice are measured. On day 0, 50 μL/mouse complete Freund's adjuvant is injected into the bottom of the left toe of each group of mice, and the treatment is started after secondary inflammation appears in the right foot of each group of mice on day 17. On day 17, the normal group and the model group are hypodermically injected with 0.9% normal saline (0.2 mL/20 g of body weight), once every 2 days, 7 times in total. The positive drug Adalimumab group is hypodermically injected with Adalimumab (8 mg/kg of body weight), once every 15 days, once in total. The test group is hypodermically injected with mPEG-SC20k-HM-3 (20 mg/kg of body weight), once every 2 days, 7 times in total. The treatment lasts for 15 days. Then, medication is stopped for observation for one week, and the mice are killed one week later.
# On day 0, the initial ankle widths, foot palm widths and toe thicknesses of left and right feet are measured with a vernier caliper as initial values. Every 2 days, the left and right ankle widths, foot palm widths and toe thicknesses of each group of mice are measured separately with the vernier caliper, and compared with the initial values to calculate the changes in the swelling degree.
# The joints of the mouse paw are observed with naked eyes, and the joints are scored every 2 days from day 17. Scoring is performed in terms of level 0 to level 4, 5 levels in total.
# After the secondary inflammation appears, systemic scoring is performed every 2 days.
# Changes of expression of TNF-α and IL-6 are analyzed by HE staining and immunohistochemistry in the ankle joint, spleen and thymus of the mice. Observation and photographing are performed under the FOVs of ×200 and ×400 times respectively, 5 FOVs are taken randomly for each picture, and data statistics is performed.
# [1] = 0 d, before treatment (starts day 17), mPEG-SC20k-HM-3 20 mg/kg groups
# [2] = 1 d, before treatment (starts day 17), mPEG-SC20k-HM-3 20 mg/kg groups
# [3] = 3 d, before treatment (starts day 17), mPEG-SC20k-HM-3 20 mg/kg groups
# [4] = 6 d, before treatment (starts day 17), mPEG-SC20k-HM-3 20 mg/kg groups
# [5] = 9 d, before treatment (starts day 17), mPEG-SC20k-HM-3 20 mg/kg groups
# [6] = 12 d, before treatment (starts day 17), mPEG-SC20k-HM-3 20 mg/kg groups
# [7] = 15 d, before treatment (starts day 17), mPEG-SC20k-HM-3 20 mg/kg groups
# [8] = 16 d, before treatment (starts day 17), mPEG-SC20k-HM-3 20 mg/kg groups
# [9] = 17 d (treatment starts), mPEG-SC20k-HM-3 20 mg/kg sc
# [10] = 19 d, mPEG-SC20k-HM-3 20 mg/kg sc
# [11] = 20 d, mPEG-SC20k-HM-3 20 mg/kg sc
# [12] = 22 d, mPEG-SC20k-HM-3 20 mg/kg sc
# [13] = 23 d, mPEG-SC20k-HM-3 20 mg/kg sc
# [14] = 25 d, mPEG-SC20k-HM-3 20 mg/kg sc
# [15] = 26 d, mPEG-SC20k-HM-3 20 mg/kg sc
# [16] = 28 d, mPEG-SC20k-HM-3 20 mg/kg sc
# [17] = 29 d, mPEG-SC20k-HM-3 20 mg/kg sc
# [18] = 31 d, mPEG-SC20k-HM-3 20 mg/kg sc
# [19] = 32 d, mPEG-SC20k-HM-3 20 mg/kg sc
substance,measurement,setting,value
Adalimumab [reference compound],changes of weight (added value),[1],0.00 ± 0.00
same,left ankle swelling,[1],0.000 ± 0.000
same,left foot (palm) swelling,[1],0.000 ± 0.000
same,left toe swelling,[1],0.000 ± 0.000
same,left ankle swelling,[2],0.239 ± 0.033
same,left foot (palm) swelling,[2],0.236 ± 0.062
same,left toe swelling,[2],0.326 ± 0.028
same,changes of weight (added value),[3],0.07 ± 0.15
same,left ankle swelling,[3],0.262 ± 0.071
same,left foot (palm) swelling,[3],0.289 ± 0.016
same,left toe swelling,[3],0.323 ± 0.086
same,changes of weight (added value),[4],0.09 ± 0.54
same,left ankle swelling,[4],0.226 ± 0.023
same,left foot (palm) swelling,[4],0.272 ± 0.057
same,left toe swelling,[4],0.272 ± 0.076
same,changes of weight (added value),[5],0.07 ± 0.25
same,left ankle swelling,[5],0.260 ± 0.020
same,left foot (palm) swelling,[5],0.302 ± 0.003
same,left toe swelling,[5],0.298 ± 0.122
same,changes of weight (added value),[6],0.25 ± 0.83
same,left ankle swelling,[6],0.264 ± 0.018
same,left foot (palm) swelling,[6],0.295 ± 0.021
same,left toe swelling,[6],0.328 ± 0.079
same,changes of weight (added value),[7],0.16 ± 0.66
same,left ankle swelling,[8],0.265 ± 0.021
same,left foot (palm) swelling,[8],0.271 ± 0.064
same,left toe swelling,[8],0.328 ± 0.065
same,right ankle swelling,[8],0.010 ± 0.006
same,right foot palm swelling,[8],0.010 ± 0.006
same,right toe swelling,[8],0.011 ± 0.033
same,joint index score,[9],7.50 ± 0.70
same,whole body (systemic) score,[9],7.00 ± 1.40
same,changes of weight (added value),[10],0.44 ± 0.60
same,left ankle swelling,[10],0.254 ± 0.018
same,left foot (palm) swelling,[10],0.247 ± 0.078
same,left toe swelling,[10],0.311 ± 0.033
same,right ankle swelling,[10],0.010 ± 0.014
same,right foot palm swelling,[10],0.029 ± 0.001
same,right toe swelling,[10],0.012 ± 0.037
same,joint index score,[11],7.50 ± 0.70
same,whole body (systemic) score,[11],6.50 ± 2.10
same,changes of weight (added value),[12],0.62 ± 0.48
same,left ankle swelling,[12],0.235 ± 0.013
same,left foot (palm) swelling,[12],0.249 ± 0.126
same,left toe swelling,[12],0.248 ± 0.136
same,right foot palm swelling,[12],0.004 ± 0.003
same,right toe swelling,[12],0.002 ± 0.042
same,joint index score,[13],8.00 ± 0.00
same,whole body (systemic) score,[13],4.50 ± 2.10
same,changes of weight (added value),[14],0.55 ± 0.02
same,left ankle swelling,[14],0.218 ± 0.028
same,left foot (palm) swelling,[14],0.234 ± 0.040
same,left toe swelling,[14],0.309 ± 0.058
same,right foot palm swelling,[14],0.013 ± 0.016
same,right toe swelling,[14],0.004 ± 0.040
same,joint index score,[15],6.50 ± 0.70
same,whole body (systemic) score,[15],4.00 ± 1.40
same,changes of weight (added value),[16],0.77 ± 0.33
same,left foot (palm) swelling,[16],0.258 ± 0.042
same,left toe swelling,[16],0.285 ± 0.075
same,right foot palm swelling,[16],0.008 ± 0.006
same,right toe swelling,[16],0.009 ± 0.035
same,joint index score,[17],6.50 ± 0.70
same,whole body (systemic) score,[17],4.00 ± 1.40
same,changes of weight (added value),[18],1.02 ± 0.98
same,left foot (palm) swelling,[18],0.235 ± 0.061
same,left toe swelling,[18],0.290 ± 0.023
same,right foot palm swelling,[18],0.010 ± 0.003
same,right toe swelling,[18],0.003 ± 0.021
same,joint index score,[19],6.50 ± 0.70
same,whole body (systemic) score,[19],3.50 ± 0.70
same,HE staining of ankle joints: pathological symptoms vs model group,,relieved to some extent
"mPEG-SC20k-Ile-Val-Arg-Arg-Ala-Asp-Arg-Ala-Ala-Val-Pro-Gly-Gly-Gly-Gly-Arg-Gly-Asp ({mPEG‑SC 20k}-IVRRADRAAVPGGGGRGD) [polypeptide III, No. 3]",changes of weight (added value),[1],0.00 ± 0.00
same,left ankle swelling,[1],0.000 ± 0.000
same,left foot (palm) swelling,[1],0.000 ± 0.000
same,left toe swelling,[1],0.000 ± 0.000
same,left ankle swelling,[2],0.188 ± 0.018
same,left foot (palm) swelling,[2],0.163 ± 0.052
same,left toe swelling,[2],0.255 ± 0.027
same,changes of weight (added value),[3],0.27 ± 0.06
same,left ankle swelling,[3],0.204 ± 0.074
same,left foot (palm) swelling,[3],0.174 ± 0.088
same,left toe swelling,[3],0.225 ± 0.106
same,changes of weight (added value),[4],0.28 ± 0.25
same,left ankle swelling,[4],0.265 ± 0.031
same,left foot (palm) swelling,[4],0.207 ± 0.055
same,left toe swelling,[4],0.261 ± 0.126
same,changes of weight (added value),[5],0.40 ± 0.39
same,left ankle swelling,[5],0.251 ± 0.029
same,left foot (palm) swelling,[5],0.224 ± 0.062
same,left toe swelling,[5],0.260 ± 0.156
same,changes of weight (added value),[6],0.42 ± 0.66
same,left ankle swelling,[6],0.265 ± 0.028
same,left foot (palm) swelling,[6],0.228 ± 0.054
same,left toe swelling,[6],0.303 ± 0.103
same,changes of weight (added value),[7],0.67 ± 1.06
same,left ankle swelling,[8],0.274 ± 0.020
same,left foot (palm) swelling,[8],0.221 ± 0.041
same,left toe swelling,[8],0.294 ± 0.092
same,right ankle swelling,[8],0.024 ± 0.011
same,right foot palm swelling,[8],0.007 ± 0.007
same,right toe swelling,[8],0.015 ± 0.021
same,joint index score,[9],7.50 ± 0.70
same,whole body (systemic) score,[9],5.50 ± 0.70
same,changes of weight (added value),[10],0.97 ± 1.09
same,left ankle swelling,[10],0.297 ± 0.005
same,right ankle swelling,[10],0.019 ± 0.009
same,right foot palm swelling,[10],0.010 ± 0.011
same,changes of weight (added value),[12],0.82 ± 0.57
same,left ankle swelling,[12],0.252 ± 0.006
same,right foot palm swelling,[12],0.003 ± 0.016
same,changes of weight (added value),[14],0.61 ± 0.72
same,left ankle swelling,[14],0.219 ± 0.013
same,left toe swelling,[14],0.292 ± 0.107
same,right toe swelling,[14],0.015 ± 0.027
same,changes of weight (added value),[16],1.13 ± 0.18
same,right ankle swelling,[16],0.021±0.013
same,changes of weight (added value),[18],1.15 ± 0.40
same,left toe swelling,[18],0.270 ± 0.127
same,HE staining of ankle joints: pathological symptoms vs model group,,relieved to some extent
